Laboratory results: US20260060928A1, “TALC-FREE ACTIVE INGREDIENT COATING” (Hermes Pharma GmbH, priority 2022, published 2026)
≈ marks a conversion by molar mass, not a printed value. Where a name gives a salt, the structure may show the parent alone.

Assay: Solubility of the active ingredient in water at room temperature
Format: physicochemical
Procedure: Further, unless specified otherwise, any measured provisions such as densities, solubulities, or the like, are understood to be measured at room temperature (i.e., 20±5° C. as defined by the European Pharmacopoeia or by the WHO guidance ‘Guidelines for the Storage of Essential Medicines and Other Health Commodities’ (2003)).

solubility [µg/mL]	solubility in water at room temperature [µg/mL]	Compound
2000 (≈ 8.61 mM)	–	COc1ccc2[nH]cc(CCNC(C)=O)c2c1 [melatonin]
≥ 100000	–	CNC[C@H](O)c1cccc(O)c1 [phenylephrine HCl]
–	12500	vitamin B12 [Vit. B12]
